Measured values as given in US5061730A, “Carboxylic acid derivatives” (Fujisawa Pharmaceutical Co., Ltd., priority 1987, dated 1991).
One block for each compound: values may come before it.

Columns and labels:
[1] = literature; cited from earlier work
[2] = target: T1, DHP-I (renal dipeptidase) (Sus scrofa, UniProt P22412); assay: Inhibition of DHP-I activity, porcine DHP-I; format: biochemical; conditions: glycyldehydrophenylalanine substrate
T1 construct: Fresh kidney cortex was cut into pieces and homogenized in a Waring blender; from tissue; host or cells: kidney cortex (pig), n-butanol extraction, ammonium sulfate fraction 50-75%
T1 sequence (P22412 17-409): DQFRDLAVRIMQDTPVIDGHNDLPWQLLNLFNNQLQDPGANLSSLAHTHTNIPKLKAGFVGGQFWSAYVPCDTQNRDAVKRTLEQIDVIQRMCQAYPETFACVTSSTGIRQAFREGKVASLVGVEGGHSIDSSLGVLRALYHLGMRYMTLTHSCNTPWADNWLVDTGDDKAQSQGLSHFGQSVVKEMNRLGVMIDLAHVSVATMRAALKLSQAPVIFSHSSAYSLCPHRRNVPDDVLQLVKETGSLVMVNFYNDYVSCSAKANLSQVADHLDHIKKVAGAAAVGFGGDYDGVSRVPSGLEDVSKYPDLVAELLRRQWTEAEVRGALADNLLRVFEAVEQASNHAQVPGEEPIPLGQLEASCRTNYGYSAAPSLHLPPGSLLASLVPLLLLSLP
Description: (§1) DHP-I (renal dipeptidase) were partially purified from several species of animals by B. J. Cambell (Methods in Enzymology, (1970) Vol. 19,722). Fresh kidney cortex was cut into pieces and homogenized in a Waring blender with an equal volume of 1/15M phosphate buffer (pH 8.0). The homogenate was filtrated on gauze to remove cellular debris. n-Butanol chilled to 0° C., was added to a concentration of 20% by volume with rapid stirring. The suspension was stirred with a magnetic stirrer for overnight at 4° C. to dissolve DHP-I. The resultant emulsion was then dialyzed against several changes of distilled water. To the dialyzate was added solid ammonium sulfate to 50% saturation at 0° C. The precipitate formed was collected by centrifugation at 4500 g for 1 hour and discarded. Solid ammonium sulfate was then added to the supernatant to 75% saturation, the suspension was centrifuged at 10,000 g for 1 hour. The sediment was dissolved in a small volume of distilled water and dialyzed against distilled water. […]
(§2) Activity of DHP-I was measured by mean of using the unsaturated dipeptide, glycyldehydrophenylalanine as substrate. […] Inhibitory effect of the test compound on DHP-I activity was measured. Inhibition percent, I(%), was calculated as followed, I(%)=(E-T)/Ex100, where E was DHP-I activity without test compound (Control), T was DHP-I activity with test compound.

[3] = target: T2, DHP-I (renal dipeptidase) (Oryctolagus cuniculus, UniProt P31429); assay: Inhibition of DHP-I activity, rabbit DHP-I; format: biochemical; conditions: glycyldehydrophenylalanine substrate
T2 construct: Fresh kidney cortex was cut into pieces and homogenized in a Waring blender; from tissue; host or cells: kidney cortex (rabbit), n-butanol extraction, ammonium sulfate fraction 50-75%
T2 sequence (P31429 17-410): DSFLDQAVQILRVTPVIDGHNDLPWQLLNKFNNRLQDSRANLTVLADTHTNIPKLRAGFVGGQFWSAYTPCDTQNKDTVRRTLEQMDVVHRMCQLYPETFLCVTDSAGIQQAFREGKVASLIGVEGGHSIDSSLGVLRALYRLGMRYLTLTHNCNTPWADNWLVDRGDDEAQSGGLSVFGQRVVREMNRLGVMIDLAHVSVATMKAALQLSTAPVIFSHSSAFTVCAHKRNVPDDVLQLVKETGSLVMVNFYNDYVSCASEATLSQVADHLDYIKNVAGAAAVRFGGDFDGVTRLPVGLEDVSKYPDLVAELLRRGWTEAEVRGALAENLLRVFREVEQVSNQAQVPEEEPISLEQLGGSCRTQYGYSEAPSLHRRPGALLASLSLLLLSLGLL
Description: as §1, §2

[4] = tested on: carboxypeptidaseA (CPaseA); assay: Effect on other metalloenzymes: carboxypeptidase A; format: biochemical; conditions: at 50,000 ng/ml; bovine pancreas enzyme
Description: (§3) DHP-I is a metalloenzyme with the zinc atom. To clarify the specific inhibitors activity of the test compound on DHP-I, the effect of the test compound on other metalloenzymes containing zinc, carboxypeptidaseA (CPaseA), leucineaminopeptidase (LAP), was determined.
Activity of CPaseA from bovine pancreas (Type II-DEF, made by Sigma Chemical Co.) was measured by mean of using carbobenzoxyglycyl-L-phenylalanine (made by Peptide Institute, Inc., Osaka, Japan) as substrate. Enzymatic hydrolysis was followed by observing the fall in optical density at 224 nm.

[5] = tested on: leucineaminopeptidase (LAP); assay: Effect on other metalloenzymes: leucineaminopeptidase; format: biochemical; conditions: at 50,000 ng/ml; porcine kidney microsomes enzyme
Description: as §3
Activity of LAP from porcine kidney microsomes (Type IV-S, made by Sigma Chemical Co.) was measured by . mean of using L-leucine-p-nitroanilide (made by Peptide Institute, Inc.) as substrate. Enzymatic hydrolysis was followed by observing the increase in optical density at 405 nm.

Escherichia coli = assay: Antimicrobial activity, paper disk diffusion method; format: cell-based; conditions: at 1 mg/ml
Description: (§4) Antimicrobial activity of the test compounds No.1 and No.2. was measured by paper disk diffusion method in a conventional manner.

Staphylococcus aureus = assay: as above; format: cell-based; conditions: at 1 mg/ml
Description: as §4

ICR mice = assay: Acute toxicity, single intravenous injection; format: in vivo; conditions: 1 g/kg single intravenous, female, 4 weeks old
Description: The acute toxicity of the test compound No.1 was determined to ICR mice (female, 4 weeks old) by a single intravenous injection.

[6] = Urinary recovery of carbapenem antibiotics combined with DHP-I inhibitor; format: in vivo, ICR mice; conditions: for dose excreted: mouse, urine, iv, 1 mg/kg, antibiotic 1 mg/kg i.v., ICR mice
Description: The effect of the test compound No.1 on urinary recovery of carbapenem antibiotics simultaneously administrated was determined. Urinary recovery percent was calculated by measuring a quantity of antibiotics excreted in urine using bioassay, when antibiotics and DHP-I inhibitor were combined and intravenously injected to ICR mice (female, 4 weeks old, 4 animals per group).

Solubility = format: physicochemical; conditions: disodium salt
Staphylococcus aureus 47 = assay: Protective effect of carbapenem antibiotic combined with DHP-I inhibitor on mice infection; format: in vivo; conditions: Test compound No. 4 alone 10 mg/kg s.c., 1 hour after challenge; ICR mice
Description: The combined effect of DHP-I inhibitor of this invention with the carbapenem antibiotic, on mice infection was determined. ICR mice (female, 4 weeks old, 5 animals per group) were intraperitoneally injected with 4×10^8 Staphylococcus aureus 47 suspended in 5% mucin. Combined therapies were administrated subcutaneously 1 hour after challenge.

[7] = with Test compound No. 1, 0.5 mg/kg
[8] = with Test compound No. 1, 1 mg/kg
[9] = with Test compound No. 1, 2 mg/kg

Compound: CC1(C)C[C@@H]1C(=O)N/C(=C\CCCCSC[C@H](N)C(=O)O)C(=O)O [cilastatin]
Urinary recoveries of the carbapenem antibiotics (e.g. imipenem) [1]: improving urinary recoveries

Compound: CC(CC(=O)O)C(O)(C(=O)O)C(=O)NO (centres unmarked) [Test compound No. 1]
IC50 [2]: 4.97 nM
IC50 [3]: 49.7 nM
Inhibitory effect on CPaseA [4]: no inhibitory effect
Inhibitory effect on LAP [5]: no inhibitory effect
Antimicrobial activity (Escherichia coli): no antimicrobial activity
Antimicrobial activity (Staphylococcus aureus): no antimicrobial activity
Acute toxicity, toxic symptom (ICR mice): No toxic symptom was observed
Effect on urinary recovery of the carbapenem antibiotics ([6]; effect of inhibitor on test compound No. 3 and 4 (1 mg/kg), in words): significantly increased urinary recovery

Compound: O=C(O)CCC(O)(C(=O)O)C(=O)NO (centres unmarked) [Test compound No. 2]
IC50 [2]: 531 nM
IC50 [3]: 2410 nM
Inhibitory effect on CPaseA [4]: no inhibitory effect
Inhibitory effect on LAP [5]: no inhibitory effect
Antimicrobial activity (Escherichia coli): no antimicrobial activity
Antimicrobial activity (Staphylococcus aureus): no antimicrobial activity

Compound: O=C(O)CCC(O)(C(=O)O)C(=O)NO (centres unmarked) [WS-1358B]
Solubility in acetone (Solubility): Insoluble
Solubility in chloroform (Solubility): Insoluble
Solubility in ethanol (Solubility): Sparingly Soluble
Solubility in ethyl acetate (Solubility): Insoluble
Solubility in hexane (Solubility): Insoluble
Solubility in methanol (Solubility): Sparingly Soluble
Solubility in water (Solubility): Soluble

dose excreted ([6]; inhibitor: None): 44.1 ± 0.6%
dose excreted [6, 7]: 66.1 ± 3%
dose excreted [6, 8]: 63.8 ± 7.3%
dose excreted [6, 9]: 65.4 ± 9.5%
Compound: C[C@@H](O)[C@H]1C(=O)N2C(C(=O)O)=C(SCCNC=N)CC12 (some centres unmarked) [Test compound No. 3]

Compound: CC(CC(=O)O)C(O)(C(=O)O)C(=O)NO (centres unmarked) [WS-1358A, 2-hydroxy-2-(hydroxycarbamoyl)-3-methylglutaric acid]
Solubility in acetone (Solubility): Insoluble
Solubility in chloroform (Solubility): Insoluble
Solubility in ethanol (Solubility): Sparingly Soluble
Solubility in ethyl acetate (Solubility): Insoluble
Solubility in hexane (Solubility): Insoluble
Solubility in methanol (Solubility): Sparingly Soluble
Solubility in water (Solubility): Soluble

dose excreted ([6]; inhibitor: None): 29.3 ± 2.8%
dose excreted [6, 7]: 51.4 ± 3.9%
dose excreted [6, 8]: 57.8 ± 1.3%
dose excreted [6, 9]: 71.9 ± 9.5%
Compound: C[C@@H](O)[C@H]1C(=O)N2C(C(=O)O)=C(S[C@@H]3CN[C@H](COC(N)=O)C3)CC12 (some centres unmarked) [Test compound No. 4]
Survived/Treated (Test mice) (Staphylococcus aureus 47): 0/5
